# According to patent US11667638B2, “4-substitued cytisine analogues” (The University of Bristol, priority 2016, dated 2023):
# Key:
# α4β2 nAChR = α4β2 nAChR (Homo sapiens (Human), UniProt P17787+P43681); assay type: binding; conditions: ratio of Ki values
# Procedure: HEK 293 cells were grown in Dulbecco's modified Eagle medium supplemented with 10% fetal bovine serum, 1% L-Glutamine, 100 units/ml penicillin G, and 100 μg/streptomycin in a humidified atmosphere containing 10% CO2. The cDNAs encoding α3 and β4 or α4 and β2 (were transfected into the HEK 293 cells at 30% confluency). The cell transfections were carried out in 100 mm Petri dishes using 30 μL of JetPEI™ (Polypus, France) (1 mg/ml, pH 7.2) and 3 μg of each cDNA. After 24 h transfection, the cells were collected, washed with PBS by centrifugation, and used for binding analysis.
# [^3H]-epibatidine saturation binding experiments to HEK transfected α3β4 or α4β2 receptors were performed by means of overnight incubation at 4° C. at concentrations ranging from 0.005 to 1 nM in a buffer containing 50 mM Tris-HCl, pH 7, 150 mM NaCl, 5 mM KCl, 1 mM MgCl2, 2.5 mM CaCl2 and 2 mg/ml BSA, in the presence (aspecific binding) or absence (total binding) of 100 nM cold epibatidine. Specific ligand binding was defined as total binding minus the binding in the presence of 100 nM cold epibatidine.
# After incubation, the membranes of HEK cells transfected with α4β2* or α3β4 subtypes were washed by filtration on GFC filters with ice-cold PBS. The GFC filters were pre-soaked in polyethylenimine and filtered through an harvester apparatus. [^3H]-epibatidine binding was determined by means of liquid scintillation counting in a beta counter.
# The ligand binding data were analyzed by means of nonlinear regression using Prism version 5 (GraphPad Software, Inc., La Jolla, Calif.). The Ki values were calculated from the experimental IC50 values using the Cheng-Prusoff equation for a single population of competitive sites: Ki=IC50/[1+(L/Kd)], where L is the concentration of radioligand used in each experiment and the Kd values were determined by saturation binding experiment. All of the assays were performed in duplicate and repeated at least two-three times.
# (α4)3(β2)2 nAChRs = (α4)3(β2)2 nAChRs (Homo sapiens (Human), UniProt P17787+P43681); assay: Maximal gating efficacy on (α4)3(β2)2 nAChRs in Xenopus oocytes, two electrode voltage clamp; assay type: cell-based; conditions: (α4)3(β2)2, low sensitivity stoichiometry; maximal current relative to 1 mM ACh
# Procedure: (§1) Compounds of the invention were tested for effects on the function of human α4β2, α3β4 and α7 nicotinic acetylcholine receptors (nAChRs) expressed heterologously in Xenopus oocytes. […] Expression in oocytes was obtained as follows: pCI (Promega, UK) plasmid containing human α4, β2, β4 or α7 complementary DNA were injected as previously described (Moroni et al., 2006). To express (α4)3(β2)2 nACh receptors, a mixture of 10α4:1β2 cDNAs was injected into the nucleus of oocytes, whereas for (α4)2(β2)3 receptors the cDNA ratio injected was 1α4:10β2.
# (§2) Functional studies: Recordings were performed manually using a Geneclamp amplifier (Molecular Devices, USA) or using an automated HiClamp system. In both cases the oocytes were impaled with two electrodes filled with 3 M KCl and the cells were held at −60 mV throughout the experiments.
# (§3) Oocyte isolation and two-electrode voltage-clamp recordings on oocytes were carried out as previously described (Moroni et al., 2006; Carbone et al., 2009). […] A minimum interval of 5 min was allowed between agonist applications to ensure reproducible recordings. Oocytes were exposed to increasing concentrations of the compounds until no further increases in the response amplitude were obtained. This concentration was taken as the concentration that causes maximal responses on the receptors tested. The data summarised in Tables 1-4 were obtained from at least 5 experiments carried out on oocytes obtained from at least three different donors.
# Maximal gating efficacy of the compounds: The concentration of the compounds of the invention causing maximal activation of the (α4)3(β2)2 nAChRs expressed heterologously in Xenopus oocytes was determined using two electrode voltage clamping.
# (α4)2(β2)3 nAChRs = (α4)2(β2)3 nAChRs (Homo sapiens (Human), UniProt P17787+P43681); assay: Maximal gating efficacy on (α4)2(β2)3 nAChRs in Xenopus oocytes, two electrode voltage clamp; assay type: cell-based; conditions: (α4)2(β2)3, high sensitivity receptors; maximal current relative to 1 mM ACh
# Procedure: as §1, §2, §3
# Maximal gating efficacy of compounds on (α4)2(β2)3 receptors (high sensitivity receptors): The concentration of the compounds causing maximal activation of the (α4)2(β2)3 nAChRs expressed heterologously in Xenopus oocytes was determined using two electrode voltage clamping.
# α3β4 nAChRs = α3β4 nAChRs (Homo sapiens (Human), UniProt P30926+P32297); assay: Maximal gating efficacy on α3β4 nAChRs in Xenopus oocytes, two electrode voltage clamp; assay type: cell-based; conditions: maximal current relative to 1 mM ACh
# Procedure: as §1, §2, §3
# Maximal gating efficacy of the compounds on α3β4 nAChRs: The concentration of the compounds causing maximal activation of α3β4 nAChRs expressed heterologously in Xenopus oocytes was determined using two electrode voltage clamping.
# α3β4 nAChRs, sequence (P32297 32-505): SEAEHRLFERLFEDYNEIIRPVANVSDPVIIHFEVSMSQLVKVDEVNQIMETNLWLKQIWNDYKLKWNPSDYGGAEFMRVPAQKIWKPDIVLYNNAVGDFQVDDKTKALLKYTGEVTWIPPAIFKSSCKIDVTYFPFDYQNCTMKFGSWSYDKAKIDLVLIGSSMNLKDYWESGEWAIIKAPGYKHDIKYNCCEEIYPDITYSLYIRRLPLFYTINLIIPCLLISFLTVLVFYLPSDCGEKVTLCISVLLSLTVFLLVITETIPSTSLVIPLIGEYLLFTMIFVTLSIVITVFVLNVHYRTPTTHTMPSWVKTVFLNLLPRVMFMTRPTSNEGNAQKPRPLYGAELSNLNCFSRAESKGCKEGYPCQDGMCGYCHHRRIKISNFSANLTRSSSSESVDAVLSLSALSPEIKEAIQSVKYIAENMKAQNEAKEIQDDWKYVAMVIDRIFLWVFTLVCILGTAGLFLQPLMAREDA
# α3β4 nAChRs, sequence (P30926 22-498): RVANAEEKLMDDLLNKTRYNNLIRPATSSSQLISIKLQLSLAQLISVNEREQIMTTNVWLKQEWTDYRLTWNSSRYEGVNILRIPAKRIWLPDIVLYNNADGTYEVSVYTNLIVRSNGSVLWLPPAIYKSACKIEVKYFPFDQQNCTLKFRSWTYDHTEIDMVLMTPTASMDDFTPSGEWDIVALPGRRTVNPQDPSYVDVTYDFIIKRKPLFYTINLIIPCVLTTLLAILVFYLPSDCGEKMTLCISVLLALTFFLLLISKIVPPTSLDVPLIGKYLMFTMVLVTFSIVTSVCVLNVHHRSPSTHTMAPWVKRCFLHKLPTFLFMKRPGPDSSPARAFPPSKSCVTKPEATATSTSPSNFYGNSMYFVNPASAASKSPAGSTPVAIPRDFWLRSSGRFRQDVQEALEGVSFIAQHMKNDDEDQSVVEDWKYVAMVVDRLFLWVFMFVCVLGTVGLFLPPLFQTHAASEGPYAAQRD
# (α4)2(β2)3 nAChRs, sequence (P43681 29-627): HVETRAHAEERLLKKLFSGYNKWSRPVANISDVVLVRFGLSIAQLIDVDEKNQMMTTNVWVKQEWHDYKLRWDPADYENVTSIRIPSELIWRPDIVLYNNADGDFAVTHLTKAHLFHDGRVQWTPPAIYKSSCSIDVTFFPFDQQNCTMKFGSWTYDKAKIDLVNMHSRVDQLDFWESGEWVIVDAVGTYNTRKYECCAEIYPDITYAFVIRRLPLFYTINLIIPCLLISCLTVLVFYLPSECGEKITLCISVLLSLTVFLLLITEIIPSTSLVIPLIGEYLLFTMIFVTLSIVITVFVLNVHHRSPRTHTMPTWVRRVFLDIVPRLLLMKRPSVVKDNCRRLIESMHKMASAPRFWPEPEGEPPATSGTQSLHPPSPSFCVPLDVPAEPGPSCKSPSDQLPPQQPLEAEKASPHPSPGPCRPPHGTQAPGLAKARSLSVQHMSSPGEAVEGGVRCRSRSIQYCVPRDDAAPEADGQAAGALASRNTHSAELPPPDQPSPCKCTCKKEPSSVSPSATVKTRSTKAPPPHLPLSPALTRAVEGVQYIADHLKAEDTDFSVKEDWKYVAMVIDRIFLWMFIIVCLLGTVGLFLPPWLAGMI
# (α4)2(β2)3 nAChRs, sequence (P17787 26-502): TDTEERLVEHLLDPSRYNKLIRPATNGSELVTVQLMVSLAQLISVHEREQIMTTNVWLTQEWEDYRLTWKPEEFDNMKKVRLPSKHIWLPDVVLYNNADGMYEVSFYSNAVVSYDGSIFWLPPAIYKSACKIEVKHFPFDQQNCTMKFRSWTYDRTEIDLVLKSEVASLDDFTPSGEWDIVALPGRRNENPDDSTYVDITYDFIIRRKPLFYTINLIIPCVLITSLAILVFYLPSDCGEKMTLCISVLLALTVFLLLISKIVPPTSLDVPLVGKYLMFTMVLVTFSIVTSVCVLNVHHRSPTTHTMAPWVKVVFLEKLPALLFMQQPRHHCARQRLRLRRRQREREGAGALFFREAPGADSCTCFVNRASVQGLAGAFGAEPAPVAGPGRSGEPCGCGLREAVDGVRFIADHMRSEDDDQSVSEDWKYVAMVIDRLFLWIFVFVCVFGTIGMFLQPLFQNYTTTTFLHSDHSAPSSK
# (α4)3(β2)2 nAChRs, sequence (P43681 29-627): as the sequence (P43681 29-627) above
# (α4)3(β2)2 nAChRs, sequence (P17787 26-502): as the sequence (P17787 26-502) above
# α4β2 nAChR, sequence (P43681 29-627 limits assumed): as the sequence (P43681 29-627) above
# α4β2 nAChR, sequence (P17787 26-502 limits assumed): as the sequence (P17787 26-502) above
compound,measurement,setting,value
(+)4-(E-2-propenoate methyl ester)cytisine [Compound 112],Ratio α3β4/α4β2,α4β2 nAChR,152.8
"N#Cc1cc2n(c(=O)c1)CC1CNC[C@@H]2C1 (single isomer, unassigned; (-)) [Compound 140, (−)4-Cyanocytisine]",Ratio α3β4/α4β2,α4β2 nAChR,199.5
same,Relative efficacy (ACh),(α4)3(β2)2 nAChRs,0.050 ± 0.027
same,Relative efficacy (ACh),(α4)2(β2)3 nAChRs,0.026 ± 0.036
same,Relative efficacy (ACh),α3β4 nAChRs,0.172 ± 0.064
"O=C(Nc1cc2n(c(=O)c1)CC1CNC[C@@H]2C1)c1ccccc1 (single isomer, unassigned; (+)) [Compound 96, (+)4-(N-Benzoylamino)cytisine]",Ratio α3β4/α4β2,α4β2 nAChR,89.6
"Cl.NC(=O)c1cc2n(c(=O)c1)CC1CNC[C@@H]2C1 (single isomer, unassigned; (-)) [Compound 142, (−)4-(carboxyamido)cytisine]",Ratio α3β4/α4β2,α4β2 nAChR,36.2
"CNCc1cc2n(c(=O)c1)CC1CNC[C@@H]2C1 (single isomer, unassigned; (-)) [Compound 152, (−)4-((N-methyl)aminomethyl)cytisine]",Ratio α3β4/α4β2,α4β2 nAChR,807.0
same,Relative efficacy (ACh),(α4)3(β2)2 nAChRs,0.031 ± 0.043
"CN(Cc1cc2n(c(=O)c1)CC1CNC[C@@H]2C1)Cc1cc2n(c(=O)c1)CC1CNC[C@@H]2C1 (stereo in doubt) [Compound 156, Methylamino bis(cytisine) derivative]",Ratio α3β4/α4β2,α4β2 nAChR,207.3
same,Relative efficacy (ACh),(α4)3(β2)2 nAChRs,0.052 ± 0.007
same,Relative efficacy (ACh),(α4)2(β2)3 nAChRs,No response
same,Relative efficacy (ACh),α3β4 nAChRs,0.012 ± 0.007
"CCc1cc2n(c(=O)c1Br)CC1CNCC2C1 (single isomer, unassigned; (-)) [BS74, (−)-(3-bromo-4-ethyl)cytisine]",Relative efficacy (ACh),(α4)3(β2)2 nAChRs,0.126 ± 0.067
same,Relative efficacy (ACh),(α4)2(β2)3 nAChRs,0.121 ± 0.171
same,Relative efficacy (ACh),α3β4 nAChRs,1.75 ± 0.56
"Nc1cc2n(c(=O)c1)CC1CNC[C@@H]2C1 (single isomer, unassigned; (+)) [Compound 81, (+)4-aminocytisine]",Ratio α3β4/α4β2,α4β2 nAChR,1561.0
same,Relative efficacy (ACh),(α4)3(β2)2 nAChRs,0.007 ± 0.01061
same,Relative efficacy (ACh),(α4)2(β2)3 nAChRs,0.024 ± 0.034
same,Relative efficacy (ACh),α3β4 nAChRs,0.0210 ± 0.008
"Cl.O=c1c(Br)c(I)cc2n1CC1CNC[C@@H]2C1 (single isomer, unassigned; (+)) [Compound 160, (+)3-Bromo-4-iodocytisine]",Ratio α3β4/α4β2,α4β2 nAChR,50.0
"O=C(O)c1cc2n(c(=O)c1)CC1CNC[C@@H]2C1 (single isomer, unassigned; (-)) [Compound 120, (−)4-Carboxylic acidcytisine]",Ratio α3β4/α4β2,α4β2 nAChR,57.7
"Cl.O=c1cc(/C=C/c2ccccc2)cc2n1CC1CNC[C@@H]2C1 (single isomer, unassigned; (+)) [Compound 114, (+)4-(E-(2-phenylethenyl))cytisine]",Ratio α3β4/α4β2,α4β2 nAChR,145.5
"O=C(O)[C@@H]1CCCN1c1cc2n(c(=O)c1)CC1CNC[C@@H]2C1 (single isomer, unassigned; (-)) [Compound 138, (−)4-(N-(L-proline)cytisine]",Ratio α3β4/α4β2,α4β2 nAChR,2.7
(−)4-(3-Pyridinyl)cytisine [Compound 104],Ratio α3β4/α4β2,α4β2 nAChR,168.7
"Cl.O=c1cc(C(F)(F)F)cc2n1CC1CNC[C@@H]2C1 (single isomer, unassigned; (-)) [Compound 77, (−)4-Trifluoromethylcytisine]",Ratio α3β4/α4β2,α4β2 nAChR,12.9
"O=c1c(Br)c(O)cc2n1CC1CNCC2C1 (single isomer, unassigned; (-)) [BS70, (−)-(3-bromo-4-hydroxy)cytisine]",Relative efficacy (ACh),(α4)3(β2)2 nAChRs,0.114 ± 0.113
same,Relative efficacy (ACh),α3β4 nAChRs,0.108 ± 0.149
"Nc1cc2n(c(=O)c1Br)CC1CNCC2C1 (single isomer, unassigned; (+)) [BS71, (+)-(3-bromo-4-amino)cytisine]",Relative efficacy (ACh),(α4)3(β2)2 nAChRs,0.152 ± 0.1223
same,Relative efficacy (ACh),α3β4 nAChRs,0.632 ± 0.067
NCC(=O)Nc1cc2n(c(=O)c1)CC1CNC[C@@H]2C1 [Compound 98],Ratio α3β4/α4β2,α4β2 nAChR,1670.0
"Cl.O=c1cc(C#Cc2ccccc2)cc2n1CC1CNC[C@@H]2C1 (single isomer, unassigned; (+)) [Compound 129, (+)4-(phenylacetylene)cytisine]",Ratio α3β4/α4β2,α4β2 nAChR,32.2
"NCc1cc2n(c(=O)c1)CC1CNC[C@@H]2C1 (single isomer, unassigned; (-)) [Compound 144, (−)4-(aminomethyl)cytisine]",Ratio α3β4/α4β2,α4β2 nAChR,78.0
"O=c1cc(N2CCNCC2)cc2n1CC1CNC[C@@H]2C1 (single isomer, unassigned; (+)) [Compound 90, (+)4-(N-piperazinyl)cytisine]",Ratio α3β4/α4β2,α4β2 nAChR,14.1
"CN(C)c1cc2n(c(=O)c1)CC1CNC[C@@H]2C1 (single isomer, unassigned; (+)) [Compound 86, (+)4-(N,N′-dimethylamino)cytisine]",Ratio α3β4/α4β2,α4β2 nAChR,5.8
"Cl.O=c1cc(CC(F)(F)F)cc2n1CC1CNC[C@@H]2C1 (single isomer, unassigned; (-)) [Compound 79, (−)4-(2,2,2-Trifluoroethyl)cytisine]",Ratio α3β4/α4β2,α4β2 nAChR,27.4
"C=Cc1cc2n(c(=O)c1)CC1CNC[C@@H]2C1 (single isomer, unassigned; (+)) [Compound 116, (+)4-Vinylcytisine]",Ratio α3β4/α4β2,α4β2 nAChR,100.1
"O=c1cc(N2CCOCC2)cc2n1CC1CNC[C@@H]2C1 (single isomer, unassigned; (+)) [Compound 92, (+)4-N-morpholinecytisine]",Ratio α3β4/α4β2,α4β2 nAChR,70.6
"CN(C)Cc1cc2n(c(=O)c1)CC1CNC[C@@H]2C1 [Compound 151, 4-(dimethylamino)methyl-(−)-cytisine]",Ratio α3β4/α4β2,α4β2 nAChR,105.7
O=c1cc(NCc2ccccc2)cc2n1CC1CNC[C@@H]2C1 [Compound 78],Ratio α3β4/α4β2,α4β2 nAChR,125.0
"CC(=O)OCC[N+](C)(C)C [ACh, reference compound]",Relative efficacy (ACh),(α4)3(β2)2 nAChRs,1
same,Relative efficacy (ACh),(α4)2(β2)3 nAChRs,1.0
same,Relative efficacy (ACh),α3β4 nAChRs,1.0
"O=c1cc(-c2nnn[nH]2)cc2n1CC1CNC[C@@H]2C1 (single isomer, unassigned; (-)) [Compound 149, (−)4-tetrazoylcytisine]",Ratio α3β4/α4β2,α4β2 nAChR,149.2
"Cl.O=c1ccccn1-c1cc2n(c(=O)c1)CC1CNC[C@@H]2C1 (single isomer, unassigned; (-)) [Compound 108, (−)4-(N-2-pyridone)cytisine]",Ratio α3β4/α4β2,α4β2 nAChR,90.3
Cl.O=c1cc(CCc2ccccc2)cc2n1CC1CNC[C@@H]2C1 [?],Ratio α3β4/α4β2,α4β2 nAChR,21.7
